Holding throughout (experiment): inhibition of tumour cell growth, NCI panel, 48 h
Assay [1] relates to IGROV1 ovarian.
For assay [2], the system named is NCI/ADR-RES ovarian.
Assay [3] concerns A549 NSCLC.
In assay [4] the test system is SNB-19 CNS.
Assay [5] deals with U251 CNS.
Assay [6] deals with NCI-H522 lung.
For assay [7], the system named is OVCAR-5 ovarian.
Assay [8] deals with SK-OV-3 ovarian.
Assay [9] deals with OVCAR-8 ovarian.
The test system of assay [10] is SNB-75 CNS.

These results are taken from PubChem BioAssay (NCI).

Values joined by “and” are separate entries in the source; they are usually repeats but may differ in a detail not shown here. Equal entries are not always repeated.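 All cell lines were grown in 96-well plates and treated with compound for 48 hours. Here, GI50 denotes the concentration required for 50% inhibition of growth. TGI is the concentration that stops growth completely.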

For the compound `Fc1ccc(-c2cc(-c3cn[nH]c3-c3ccccn3)ccn2)cc1`, the GI50 in [1] was greater than 25 µM; in assay [2], greater than 19.5 µM; in assay [3] it was greater than 25 µM; in assay [4], greater than 25 µM; in assay [5] it was greater than 25 µM; in assay [6] it was greater than 25 µM. Besides, the GI50 in assay [7], in assay [8], in [9] and in [10] was greater than 25 µM in each case. Moreover, the TGI in assay [1], in [2], in assay [3], in assay [4], in assay [5] and in assay [6] was greater than 25 µM each time. Also, the TGI in assay [7], in [8], in assay [9] and in assay [10] was greater than 25 µM each time.
Turning to `C=C[C@@]1(C)CC(=O)[C@]2(O)[C@@]3(C)[C@@H](O)CCC(C)(C)[C@@H]3[C@H](O)[C@@H](OC(C)=O)[C@@]2(C)O1`, the TGI in assay [1], in assay [2], in assay [3], in [4], in assay [5] and in assay [6] was greater than 100 µM throughout. Further, the TGI in assay [7], in [8], in assay [9] and in assay [10] was greater than 100 µM throughout.
Take `Oc1cccc(-c2nc(N3CCOCC3)c3oc4ncccc4c3n2)c1`: the GI50 in assay [1] is 0.327 µM and 0.425 µM; in assay [2], 0.147 µM and 0.225 µM; in [3] it was 0.317 µM and 0.225 µM; in assay [4] it was 0.358 µM and 0.247 µM; in [5], 0.346 µM and 0.384 µM; in assay [6], 0.0654 µM and 0.0819 µM. Further, the GI50 in assay [7] was 2.38 µM and 2.84 µM; in [8], 0.0912 µM and 0.0819 µM; in [9] it was 0.238 µM and 0.193 µM; in assay [10], 0.0401 µM and < 0.0151 µM. Further, the TGI was 1.47 µM and 2.23 µM in assay [1]; 7.43 µM and 6.83 µM in assay [4]; > 44.5 µM and 10.9 µM in assay [5]; 0.666 µM and 4.67 µM in [6]; greater than 26.6 µM in [7]; 0.606 µM and 0.393 µM in assay [8]. For the same compound, the TGI in assay [9] was 6.75 µM; in assay [10], 0.311 µM and 0.114 µM.
